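Briefly, cells in 96-well plates were exposed to five compound concentrations for 48 h, and endpoints were estimated by linear interpolation. GI50 is the concentration that inhibits growth by half.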 Activity calls are given as the source filed them. No stated cut-off is given here; in the data, active = GI50 up to about 1.1 µM and inactive = higher.
Assays:
Assay in all cases: growth of human tumour cells (NCI), 48 h
[1] = tested on: 786-0
[2] = tested on: A549
[3] = tested on: CAKI-1
[4] = tested on: HCT-116
[5] = tested on: KM12
[6] = tested on: LOX IMVI
[7] = tested on: Malme-3M
[8] = tested on: OVCAR-3
[9] = tested on: OVCAR-4
[10] = tested on: OVCAR-8
[11] = tested on: SF-295
[12] = tested on: SF-539
[13] = tested on: SK-MEL-28
[14] = tested on: SK-MEL-5
[15] = tested on: SK-OV-3
[16] = tested on: SNB-75
[17] = tested on: SW-620
[18] = tested on: UACC-257
[19] = tested on: MDA-MB-231

Measured: GI50

C1OC1CO[C@@H]1CO[C@H]2[C@@H]1OC[C@H]2OCC1CO1 (stereo partly drawn)
inactive: [1] > 100 µM | [2] > 100 µM | [3] 67.9 µM | [4] > 100 µM | [5] > 100 µM | [6] > 100 µM | [7] > 100 µM | [8] > 100 µM | [9] > 100 µM | [10] > 100 µM | [11] > 100 µM | [12] > 100 µM | [13] > 100 µM | [14] > 100 µM | [15] > 100 µM | [16] > 100 µM | [17] > 100 µM | [18] > 100 µM

O=C(COc1ccc2c(=O)cc(-c3ccc(Cl)cc3)oc2c1)N1CCN(c2ccccc2)CC1
inactive: [1] > 100 µM | [2] 48.9 µM | [3] > 100 µM | [4] 55.1 µM | [5] 89.9 µM | [6] > 100 µM | [7] > 100 µM | [8] > 100 µM | [9] > 100 µM | [10] > 100 µM | [11] > 100 µM | [12] > 100 µM | [13] > 100 µM | [14] > 100 µM | [15] > 100 µM | [16] > 100 µM | [17] > 100 µM | [18] > 100 µM

O=C(/C=C/c1cc(Cl)cc(Cl)c1O)c1cccc(O)c1
inactive: [1] 70.5 µM | [2] > 100 µM | [3] > 100 µM | [4] 42.4 µM | [5] 54 µM | [6] 12.6 µM | [7] 28.6 µM | [8] 28.4 µM | [9] 40.2 µM | [10] 32.1 µM | [11] 14.8 µM | [12] 28.2 µM | [13] 43.5 µM | [14] 45.6 µM | [15] 31.8 µM | [16] 36 µM | [17] 54.5 µM | [18] > 100 µM

CC(=O)/C=C/c1cccc(N=S)c1
inactive: [1] 6 µM | [2] 26.5 µM | [3] > 50.9 µM | [4] 1.39 µM | [5] 6.68 µM | [6] 2.39 µM | [7] > 73.8 µM | [8] 19.2 µM | [9] 52.2 µM | [10] 12.2 µM | [11] 15.2 µM | [12] 5.9 µM | [13] 16.5 µM | [14] 23.4 µM | [15] > 48.1 µM | [16] 21.1 µM | [17] 2.44 µM | [18] 29.4 µM

Nc1nc2ncn(CC(O)CO)c2c(=S)[nH]1 (stereo not drawn)
inactive: [1] > 100 µM | [2] > 100 µM | [3] > 100 µM | [4] > 100 µM | [5] > 100 µM | [6] > 100 µM | [7] > 100 µM | [8] > 100 µM | [9] > 100 µM | [10] > 100 µM | [11] > 100 µM | [12] > 100 µM | [13] > 100 µM | [14] > 100 µM | [15] > 100 µM | [16] > 100 µM | [17] > 100 µM | [18] > 100 µM

O=C1c2ccccc2C(=O)c2nc(-c3ccccc3)c(-c3ccccc3)nc21
inactive: [1] > 61.7 µM | [2] 22.8 µM | [3] > 100 µM | [4] > 100 µM | [5] > 100 µM | [6] 8.04 µM | [7] 1.22 µM | [8] 2.58 µM | [9] 7.08 µM | [10] > 100 µM | [11] 11 µM | [12] 24.7 µM | [13] > 74.1 µM | [14] 1.49 µM | [15] > 100 µM | [16] 8.15 µM | [17] 2.7 µM | [18] 1.89 µM

c1ccc(SC23C4C5C6C4C2C6C53)nc1 (stereo not drawn)
inactive: [1] > 100 µM | [2] > 100 µM | [3] > 100 µM | [4] > 100 µM | [5] > 100 µM | [6] > 100 µM | [7] > 100 µM | [8] > 100 µM | [9] > 100 µM | [10] > 100 µM | [11] > 100 µM | [12] > 75 µM | [13] > 100 µM | [14] > 100 µM | [15] > 100 µM | [16] > 77.4 µM | [17] > 100 µM | [18] > 100 µM

C1=C2SSC3=CC=C(SSc4ccc(s4)SSC4=CC=C(SSC(=C1)S2)S4)S3
inactive: [1] > 100 µM | [2] > 100 µM | [3] > 100 µM | [4] > 100 µM | [5] > 100 µM | [6] > 100 µM | [19] > 100 µM | [7] > 100 µM | [8] > 100 µM | [9] > 100 µM | [10] > 100 µM | [11] > 100 µM | [13] > 100 µM | [14] > 100 µM | [15] > 100 µM | [16] > 100 µM | [17] > 100 µM | [18] > 100 µM

COC(=O)/C=C/c1cc(OC)c(OC)c(OC)c1
inactive: [1] > 100 µM | [2] > 100 µM | [3] > 100 µM | [4] > 100 µM | [5] > 100 µM | [6] > 100 µM | [7] > 100 µM | [8] > 100 µM | [9] > 100 µM | [10] > 100 µM | [11] > 100 µM | [12] > 100 µM | [13] > 100 µM | [14] > 100 µM | [15] > 100 µM | [16] 41.6 µM | [17] > 100 µM | [18] > 100 µM

Cc1ccc(C2(O)CC(c3ccc([N+](=O)[O-])o3)=NN2C(=O)COc2ccc(Cl)cc2)cc1 (stereo not drawn)
inactive: [1] 4.45 µM | [2] 7.29 µM | [3] 12.6 µM | [4] 3.85 µM | [5] 4.66 µM | [6] 4.59 µM | [7] 11.6 µM | [8] 5.35 µM | [9] 5.98 µM | [10] 4.63 µM | [11] 10.6 µM | [12] 10.2 µM | [13] 9.77 µM | [14] 2.32 µM | [15] 15.3 µM | [16] 13.6 µM | [17] 3.12 µM | [18] 4.91 µM

O=C1Nc2ccccc2C12CCNC2Cc1ccccc1 (stereo not drawn)
inactive: [1] > 100 µM | [2] > 100 µM | [3] > 100 µM | [4] > 100 µM | [5] > 100 µM | [6] > 100 µM | [7] > 100 µM | [8] > 100 µM | [9] > 100 µM | [10] > 100 µM | [11] > 100 µM | [12] > 100 µM | [13] > 100 µM | [14] > 100 µM | [15] > 100 µM | [16] > 100 µM | [17] > 100 µM | [18] > 100 µM

Reference: ChEMBL document CHEMBL1201862, “PubChem BioAssay data set” (2004)
